Source: PMC8007111, “Novel Potent Muscarinic Receptor Antagonists: Investigation on the Nature of Lipophilic Substituents in the 5- and/or 6-Positions of the 1,4-Dioxane Nucleus” (Journal of Medicinal Chemistry, 2020)

How the values were obtained:
[1] = molecular target: T1, hM1 mAChR (Homo sapiens, UniProt P11229); experiment: [3H]NMS inhibition radioligand binding, hM1 in CHO-K1 cell membranes; conditions: for pKi hM1 / Ki: [3H]NMS, CHO-K1 cell membranes, mean ± S.E.M.; for Ki: read-out: pKi hM1 (converted)
T1 construct: expressed in transfected cells; host or cells: CHO-K1 (membrane preparation)
T1 sequence (P11229 1-460): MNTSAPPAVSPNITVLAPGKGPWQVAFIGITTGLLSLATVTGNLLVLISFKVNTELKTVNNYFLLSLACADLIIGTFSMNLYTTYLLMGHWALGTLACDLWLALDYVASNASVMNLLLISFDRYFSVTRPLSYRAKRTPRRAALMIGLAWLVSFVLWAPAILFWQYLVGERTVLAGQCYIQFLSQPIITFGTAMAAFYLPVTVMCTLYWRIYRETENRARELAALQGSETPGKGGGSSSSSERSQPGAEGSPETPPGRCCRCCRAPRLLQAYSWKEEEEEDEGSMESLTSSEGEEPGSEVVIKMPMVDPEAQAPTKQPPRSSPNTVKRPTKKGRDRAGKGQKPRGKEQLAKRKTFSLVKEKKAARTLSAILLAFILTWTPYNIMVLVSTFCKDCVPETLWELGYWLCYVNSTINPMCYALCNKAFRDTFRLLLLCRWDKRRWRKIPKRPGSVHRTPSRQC
Protocol: (§1) CHO-K1 cells stably transfected with the human muscarinic receptor subtypes (hM1–5) were grown in Dulbecco’s modified Eagle’s medium (DMEM) with nutrient mixture F12 (DMEM/F12, 50/50), containing 10% fetal bovine serum, penicillin (100 U/mL), streptomycin (100 U/mL), L-glutamine (4 mM), and geneticin (G-418, 50 μg/mL) at 37 °C in a 5% CO2 humidified incubator. […] Serum (0.7 mL) was added to inactivate the trypsin, and the cells were spun down by centrifuging at 300g for 5 min. The cells were then resuspended in ice-cold 25 mM sodium phosphate buffer containing 5 mM MgCl2, pH 7.4 (binding buffer) and homogenized using a cell disrupter (Ultra-Turrax, setting 3, 30 s). The homogenate was sedimented by centrifugation (17,000g, 15 min). The supernatant was discarded, and the resulting membrane pellets were resuspended with Ultra-Turrax in the same buffer to give a final protein concentration of 1–2 mg/mL. The protein content was determined by the method of Bradford (1976) with bovine serum albumin (Sigma) as a standard and stored at −80 °C.
(§2) Inhibition radioligand binding assays were conducted as previously described[48],[49] with 0.2 nM [^3H]NMS in binding buffer in a final volume of 250 μL. Nonspecific binding was defined in the presence of 10 μM atropine. Briefly, membrane fractions (about 25–70 μg/mL of protein) were incubated with radioligand and unlabeled test compounds for 2 h at r.t. Bound and free radioactivity were separated by filtering the assay mixture through UniFilter GF/B plates using a FilterMate Cell Harvester (PerkinElmer Life and Analytical Science). The filter bound radioactivity was counted by a TopCount NXT Microplate Scintillation Counter (PerkinElmer Life and Analytical Science). Data (cpm) were normalized to percentage-specific binding and analyzed using a four-parameter logistic equation in GraphPad Prism 5.02; IC50 values were determined, and Ki values were calculated.[59]

[2] = molecular target: T2, hM2 mAChR (Homo sapiens, UniProt P08172); experiment: [3H]NMS inhibition radioligand binding, hM2 in CHO-K1 cell membranes; conditions: for pKi hM2 / Ki: [3H]NMS, CHO-K1 cell membranes, mean ± S.E.M.; for Ki: read-out: pKi hM2 (converted)
T2 construct: expressed in transfected cells; host or cells: CHO-K1 (membrane preparation)
T2 sequence (P08172 1-466): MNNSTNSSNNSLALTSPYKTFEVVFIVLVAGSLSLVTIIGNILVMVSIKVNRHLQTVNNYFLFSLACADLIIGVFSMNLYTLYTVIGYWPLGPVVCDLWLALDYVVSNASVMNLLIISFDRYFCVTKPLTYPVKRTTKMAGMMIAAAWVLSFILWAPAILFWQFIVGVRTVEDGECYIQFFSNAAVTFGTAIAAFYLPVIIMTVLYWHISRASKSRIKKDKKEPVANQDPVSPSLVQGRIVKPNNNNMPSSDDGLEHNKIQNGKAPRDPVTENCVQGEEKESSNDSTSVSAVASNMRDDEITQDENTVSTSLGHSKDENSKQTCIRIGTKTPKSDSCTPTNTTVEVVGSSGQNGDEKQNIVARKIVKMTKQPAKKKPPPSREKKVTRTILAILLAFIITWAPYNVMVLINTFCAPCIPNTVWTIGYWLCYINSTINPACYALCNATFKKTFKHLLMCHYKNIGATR
Protocol: as §1, §2

[3] = molecular target: T3, hM3 mAChR (Homo sapiens, UniProt P20309); experiment: [3H]NMS inhibition radioligand binding, hM3 in CHO-K1 cell membranes; conditions: for pKi hM3 / Ki: [3H]NMS, CHO-K1 cell membranes, mean ± S.E.M.; for Ki: read-out: pKi hM3 (converted)
T3 construct: expressed in transfected cells; host or cells: CHO-K1 (membrane preparation)
T3 sequence (P20309 whole entry): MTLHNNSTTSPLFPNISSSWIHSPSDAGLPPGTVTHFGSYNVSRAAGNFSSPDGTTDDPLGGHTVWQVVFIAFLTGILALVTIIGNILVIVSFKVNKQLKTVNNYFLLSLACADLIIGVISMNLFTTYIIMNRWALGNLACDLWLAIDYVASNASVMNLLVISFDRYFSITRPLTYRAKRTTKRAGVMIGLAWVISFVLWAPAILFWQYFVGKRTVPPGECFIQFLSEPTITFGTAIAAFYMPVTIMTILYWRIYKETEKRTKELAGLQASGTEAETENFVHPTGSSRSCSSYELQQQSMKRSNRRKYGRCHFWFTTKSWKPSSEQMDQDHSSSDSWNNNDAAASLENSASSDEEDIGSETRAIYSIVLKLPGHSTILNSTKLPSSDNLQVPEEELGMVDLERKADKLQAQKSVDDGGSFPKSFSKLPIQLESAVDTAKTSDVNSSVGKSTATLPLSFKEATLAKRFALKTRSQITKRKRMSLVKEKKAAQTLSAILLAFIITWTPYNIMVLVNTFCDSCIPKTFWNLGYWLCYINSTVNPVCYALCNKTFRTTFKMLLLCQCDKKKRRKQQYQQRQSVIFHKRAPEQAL
Protocol: as §1, §2

[4] = molecular target: T4, hM4 mAChR (Homo sapiens, UniProt P08173); experiment: [3H]NMS inhibition radioligand binding, hM4 in CHO-K1 cell membranes; conditions: for pKi hM4 / Ki: [3H]NMS, CHO-K1 cell membranes, mean ± S.E.M.; for Ki: read-out: pKi hM4 (converted)
T4 construct: expressed in transfected cells; host or cells: CHO-K1 (membrane preparation)
T4 sequence (P08173 1-479): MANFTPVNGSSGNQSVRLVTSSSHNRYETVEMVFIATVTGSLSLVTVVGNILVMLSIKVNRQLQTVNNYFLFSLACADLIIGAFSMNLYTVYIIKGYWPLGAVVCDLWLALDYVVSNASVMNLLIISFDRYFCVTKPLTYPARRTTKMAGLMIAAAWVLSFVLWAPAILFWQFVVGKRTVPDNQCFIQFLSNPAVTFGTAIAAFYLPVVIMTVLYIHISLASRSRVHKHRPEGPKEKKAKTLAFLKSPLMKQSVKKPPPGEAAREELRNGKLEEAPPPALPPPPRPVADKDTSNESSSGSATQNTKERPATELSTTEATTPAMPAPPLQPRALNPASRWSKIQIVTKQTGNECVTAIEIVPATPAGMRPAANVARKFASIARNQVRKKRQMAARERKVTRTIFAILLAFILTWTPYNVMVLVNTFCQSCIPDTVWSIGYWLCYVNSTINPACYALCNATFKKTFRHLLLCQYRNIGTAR
Protocol: as §1, §2

[5] = molecular target: T5, hM5 mAChR (Homo sapiens, UniProt P08912); experiment: [3H]NMS inhibition radioligand binding, hM5 in CHO-K1 cell membranes; conditions: [3H]NMS, CHO-K1 cell membranes, mean ± S.E.M.; for Ki: read-out: pKi hM5 (converted)
T5 construct: expressed in transfected cells; host or cells: CHO-K1 (membrane preparation)
T5 sequence (P08912 1-532): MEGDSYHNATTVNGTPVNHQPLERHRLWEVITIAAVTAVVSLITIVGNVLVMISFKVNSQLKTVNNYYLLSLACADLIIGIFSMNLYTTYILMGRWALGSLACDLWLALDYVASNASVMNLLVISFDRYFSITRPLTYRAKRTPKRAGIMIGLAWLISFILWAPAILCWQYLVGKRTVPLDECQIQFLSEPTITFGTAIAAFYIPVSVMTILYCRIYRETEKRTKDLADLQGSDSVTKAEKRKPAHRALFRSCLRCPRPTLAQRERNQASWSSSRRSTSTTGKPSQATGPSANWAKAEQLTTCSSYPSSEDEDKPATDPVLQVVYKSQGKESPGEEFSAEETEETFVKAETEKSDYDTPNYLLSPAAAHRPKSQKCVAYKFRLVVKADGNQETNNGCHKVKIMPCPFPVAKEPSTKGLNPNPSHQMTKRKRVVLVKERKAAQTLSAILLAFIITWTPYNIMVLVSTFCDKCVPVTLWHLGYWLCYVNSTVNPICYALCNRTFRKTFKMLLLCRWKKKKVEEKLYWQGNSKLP
Protocol: as §1, §2

pKi hM1 [1]	pKi hM2 [2]	pKi hM3 [3]	pKi hM4 [4]	pKi hM5 [5]	Ki [1] [nM]	Ki [2] [nM]	Ki [3] [nM]	Ki [4] [nM]	Ki [5] [nM]	SMILES	ER (eudismic ratio) hM1 ([1]; eutomer vs distomer)	ER (eudismic ratio) hM2 ([2]; eutomer vs distomer)	ER (eudismic ratio) hM3 ([3]; eutomer vs distomer)	ER (eudismic ratio) hM4 ([4]; eutomer vs distomer)
<5	5.52 ± 0.02	<5	<5	5.21 ± 0.08						C[N+](C)(C)C[C@@H]1CO[C@H](c2ccc([S+]([O-])c3ccccc3)cc2)CO1.[I-] (relative stereo) [16a, 1-((2R*,5R*)-5-(4-(Phenylsulfinyl)phenyl)-1,4-dioxan-2-yl)-N,N,N-trimethylmethanaminium Iodide]				
5.57 ± 0.07	5.86 ± 0.04	5.35 ± 0.06	5.14 ± 0.01	5.40 ± 0.15						C[N+](C)(C)C[C@@H]1CO[C@@H](c2ccc(Sc3ccccc3)cc2)CO1.[I-] (relative stereo) [15b, 1-((2R*,5S*)-5-(4-(Phenylthio)phenyl)-1,4-dioxan-2-yl)-N,N,N-trimethylmethanaminium Iodide]				
					550	2140	1100	1170	1450	C[N+](C)(C)C[C@@H]1COC(c2ccccc2)C(c2ccccc2)(c2ccccc2)O1 (stereo in doubt) [19b, 1-((2R*,5R*)-5,6,6-Triphenyl-1,4-dioxan-2-yl)-N,N,N-trimethylmethanaminium Iodide]				
<5	<5	<5	<5	<5						C[N+](C)(C)C[C@@H]1CO[C@@H](c2ccc(Cc3ccccc3)cc2)CO1.[I-] (relative stereo) [14b, 1-((2R*,5S*)-5-(4-Benzylphenyl)-1,4-dioxan-2-yl)-N,N,N-trimethylmethanaminium Iodide]				

More lines, now with the values behind:

SMILES	pKi hM1 [1]	pKi hM2 [2]	pKi hM3 [3]	pKi hM4 [4]	pKi hM5 [5]	Ki [1] [nM]	Ki [2] [nM]	Ki [3] [nM]	Ki [4] [nM]	Ki [5] [nM]	ER (eudismic ratio) hM1 ([1]; eutomer vs distomer)	ER (eudismic ratio) hM2 ([2]; eutomer vs distomer)	ER (eudismic ratio) hM3 ([3]; eutomer vs distomer)	ER (eudismic ratio) hM4 ([4]; eutomer vs distomer)
C[N+](C)(C)C[C@@H]1COC[C@@H](c2ccc([S+]([O-])c3ccccc3)cc2)O1.[I-] (relative stereo) [7b, 1-((2R*,6R*)-6-(4-(Phenylsulfinyl)phenyl)-1,4-dioxan-2-yl)-N,N,N-trimethylmethanaminium Iodide]	5.17 ± 0.08	6.38 ± 0.10	5.88 ± 0.14	5.42 ± 0.02	5.74 ± 0.16									
C[N+](C)(C)C[C@H]1COC[C@@](c2ccccc2)(C2CCCCC2)O1.[I-] [(2S,6S)-(−)-3b, 1-((2S,6S)-6-Cyclohexyl-6-phenyl-1,4-dioxan-2-yl)-N,N,N-trimethylmethanaminium Iodide]	9.52 ± 0.19	8.22 ± 0.10	9.05 ± 0.10	9.17 ± 0.19	9.18 ± 0.18						17	2	35	52
C[N+](C)(C)C[C@@H]1CO[C@@H](c2ccc(-c3ccccc3)cc2)CO1.[I-] (relative stereo) [13b, 1-((2R*,5S*)-5-([1,1′-Biphenyl]-4-yl)-1,4-dioxan-2-yl)-N,N,N-trimethylmethanaminium Iodide]	<5	5.49 ± 0.02	<5	<5	<5									
C[N+](C)(C)C[C@@H]1CO[C@H](c2ccc(Cc3ccccc3)cc2)CO1.[I-] (relative stereo) [14a, 1-((2R*,5R*)-5-(4-Benzylphenyl)-1,4-dioxan-2-yl)-N,N,N-trimethylmethanaminium Iodide]	<5	5.65 ± 0.05	5.65 ± 0.12	<5	5.53 ± 0.13									
C[N+](C)(C)C[C@@H]1COC[C@H](c2ccc(-c3ccccc3)cc2)O1.[I-] (relative stereo) [4a, 1-((2R*,6S*)-6-([1,1′-Biphenyl]-4-yl)-1,4-dioxan-2-yl)-N,N,N-trimethylmethanaminium Iodide]	<5	5.06 ± 0.02	<5	<5	<5									
C[N+](C)(C)CC1COCC(c2ccc(Cc3ccccc3)cc2)O1 (mixture of isomers) [5a/b, 1-((2R*,6S*)-6-(4-Benzylphenyl)-1,4-dioxan-2-yl)-N,N,N-trimethylmethanaminium Iodide and 1-((2R*,6R*)-6-(4-Benzylphenyl)-1,4-dioxan-2-yl)-N,N,N-trimethylmethanaminium Iodide]						> 10000	4900	> 10000	> 10000	7410				
C[N+](C)(C)C[C@@H]1COC[C@H](c2ccc(S(=O)(=O)c3ccccc3)cc2)O1.[I-] (relative stereo) [8a, 1-((2R*,6S*)-6-(4-(Phenylsulfonyl)phenyl)-1,4-dioxan-2-yl)-N,N,N-trimethylmethanaminium Iodide]	5.08 ± 0.09	5.13 ± 0.01	<5	<5	5.21 ± 0.14									
C[N+](C)(C)C[C@@H]1COC[C@H](c2ccc(Sc3ccccc3)cc2)O1.[I-] (relative stereo) [6a, 1-((2R*,6S*)-6-(4-(Phenylthio)phenyl)-1,4-dioxan-2-yl)-N,N,N-trimethylmethanaminium Iodide]	5.50 ± 0.05	5.47 ± 0.07	<5	5.43 ± 0.05	5.58 ± 0.13									
